{
  "source": "patent US8945534B2",
  "about": "“Controlled activation of the reuterin-production machinery of Lactobacillus” (priority 2008, dated 2015)",
  "origin": "cited, not measured here",
  "system": "Escherichia, Salmonella, Shigella, Proteus, Pseudomonas, Clostridium, Staphylococcus, Streptococcus, and Helicobacter pylori; several fungi and other …",
  "conditions": "species representing all bacterial genera tested thus far; U.S. Pat. Nos. 5,439,678 etc.",
  "data": [
    {"smiles": "O=CCCO", "note": "[Reuterin, 3-hydroxypropionaldehyde]", "values": [
      {"measurement": "inhibition of growth of microorganisms", "value": "capable of inhibiting growth"}
    ]}
  ]
}
